{"source": "patent US20200109163A1", "about": "“CARBONATED BEVERAGE AND METHOD FOR CARBONATION ENHANCEMENT” (INTERNATIONAL FLAVORS & FRAGRANCES INC., priority 2018, published 2020)", "assay_type_in_all_cases": "in vivo", "key": {"[1]": {"assay": "Carbonation effect of structural analogs in lime-flavored carbonated water, trained panel", "procedure": "Selected structural analogs of sitosterol were tested for their ability to enhance the carbonation effect of a carbonated beverage. The analogs were used in amounts of 400 ppb and 200 ppb to 5 ppm. The sensory evaluation was carried by a trained panel that tasted each of the compounds in a lime-flavored carbonated water (Vintage seltzer water). The intensity of carbonation effect was rated and compared to other samples (Table 3)"}, "[2]": {"assay": "Alcohol sensation with varying amounts of β-sitosterol in alcohol solution at 17.5% ABV", "procedure": "(§1) Alcohol solutions with ABV ranging from 8.75% to […] were prepared by diluting CAPTAIN MORGAN® Original Spiced Rum (35% ABV) (Diageo North America Inc.) in varying amounts of water.\nA series of β-sitosterol solutions (prepared in Example 1) were added to the alcohol solution at 17.5% ABV (prepared in Example 1) to yield final concentrations of β-sitosterol ranging from 3 to 500 ppb. The alcohol sensation of the obtained samples containing different amounts of β-sitosterol was evaluated."}, "[3]": {"assay": "Carbonation sensation with varying amounts of carbonation", "conditions": "2.5 ppt in carbonated water containing 6.0, 7.2 or 8.0 g/L CO2, all samples", "procedure": "(§2) Carbonated water containing carbon dioxide at 6.0, 7.2 and 8.0 g/L, respectively, were also prepared.\nA β-sitosterol solution (prepared in Example 1) was added to carbonated water containing 6.0, 7.2 or 8.0 g/L CO2 (prepared in Example 1), respectively, to yield a final concentration of 2.5 ppt β-sitosterol. The carbonation sensation of the obtained samples was evaluated."}, "[4]": {"assay": "Alcohol sensation with varying amounts of alcohol, panel comparison with solutions at higher ABV", "procedure": "as §1\nA β-sitosterol solution (prepared in Example 1) was added to alcohol solutions at 8.75% ABV, 17.5% ABV and 21.75% ABV (prepared in Example 1), respectively, to yield a final concentration of 25 ppb β-sitosterol. The alcohol sensation of the obtained samples was evaluated and compared by a panel with alcohol solutions at higher levels of ABV."}, "[5]": {"assay": "Carbonation sensation with varying amounts of β-sitosterol in carbonated water (7.2 g/L CO2)", "procedure": "as §2\nA series of β-sitosterol solutions (prepared in Example 1) were added to carbonated water (7.2 g/L CO2) (prepared in Example 1) to yield final concentrations ranging from 0.1 ppt to 50 ppt. The carbonation sensation of the obtained samples containing different amounts of β-sitosterol was evaluated."}, "[6]": {"assay": "Flavor of β-sitosterol solutions in water", "conditions": "solutions 2.5 to 600 ppb in water"}, "[7]": {"assay": "Alcohol sensation intensity in alcohol solution at 6% ABV, panel, scale 0 to 10", "conditions": "100 ppb in solution of 6% ABV; scale 0 to 10 (0=none, 4=medium, 7=high, 10=extremely high); control 4.38 ± 0.32", "procedure": "Alcohol solution at 6% ABV was prepared by adding ethanol in water; and\nA β-sitosterol solution (prepared in Example 1) was added to the alcohol solution at 6% ABV (prepared in Example 1) to yield a final concentration of 100 ppb. The alcohol sensation of the obtained sample was evaluated and compared by a panel with the alcohol solution at 6% ABV using an intensity scale of 0 to 10, where 0=none, 4=medium, 7=high and 10=extremely high. The intensity of alcohol sensation was rated. Mean (“Alcohol Intensity”) and standard error of the mean (“SE”, ±) were obtained (Table 1)."}, "[8]": {"assay": "Carbonation effect intensity in carbonated water (7.2 g/L CO2), panel, scale 0 to 10", "conditions": "2.5 ppt in solution of 7.2 g/L CO2; scale 0 to 10 (0=none, 4=medium, 7=high, 10=extremely high); control 4.88 ± 2.53", "procedure": "as §2\nA β-sitosterol solution (prepared in Example 1) was added to the carbonated water (7.2 g/L CO2) (prepared in Example 1) to yield a final concentration of 2.5 ppt. The carbonation effect of the obtained sample was evaluated and compared by a panel with the carbonated water using an intensity scale of 0 to 10, where 0=none, 4=medium, 7=high and 10=extremely high. The intensity of carbonation effect was rated. Mean (“Carbonation Intensity”) and standard error of the mean (“SE”, ±) were obtained (Table 2)."}, "[9]": {"assay": "Alcohol impression in alcohol-free beer, panel comparison with alcohol solutions", "conditions": "25 ppb in Brahma 0.0% alcohol-free beer", "procedure": "Alcohol solutions at 1% ABV, 2% ABV, 2.5% ABV, 3% ABV and 5% ABV were prepared by adding varying amounts of ethanol in Brahma 0.0% alcohol-free beer (Anheuser-Busch InBev);\nA β-sitosterol solution (prepared in Example 1) was added in Brahma 0.0% alcohol-free beer to yield a final concentration of 25 ppb. The alcohol impression of the obtained sample was evaluated and compared by a panel with alcohol solutions at 1% ABV, 2% ABV, 2.5% ABV, 3% ABV and 5% ABV (prepared in Example 1). β-Sitosterol (25 ppb) provided an equal level of alcohol impression as the alcohol solution at 2.5% ABV. Accordingly, β-Sitosterol provided alcohol sensation in alcohol-free beverages."}, "[10]": {"conditions": "200 ppb in lime-flavored carbonated water (Vintage seltzer water)"}, "[11]": {"conditions": "200 ppb-5 ppm in lime-flavored carbonated water (Vintage seltzer water)"}}, "data": [{"smiles": "CC(C)(O)[C@@H]1CC[C@](C)([C@H]2[C@@H](O)C[C@@]3(C)[C@@H]4C[C@H](O[C@@H]5O[C@H](CO)[C@@H](O)[C@H](O)[C@H]5O)[C@H]5C(C)(C)[C@@H](O[C@@H]6OC[C@@H](O)[C@H](O)[C@H]6O)CC[C@@]56C[C@@]46CC[C@]23C)O1", "note": "[Astragaloside IV]", "values": [{"measurement": "Carbonation Effect", "setting": "[1]; [10]", "value": "200 ppb: More impactful, long lasting, very"}]}, {"smiles": "C=C(C)[C@@H]1CC[C@]2(CO)CC[C@]3(C)[C@H](CC[C@@H]4[C@@]5(C)CC[C@H](O)C(C)(C)[C@@H]5CC[C@]43C)[C@@H]12", "note": "[Betulin]", "values": [{"measurement": "Carbonation Effect", "setting": "[1]; [10]", "value": "200 ppb: Long lasting popping, sour, works with"}]}, {"smiles": "C[C@H](CCC(=O)O)[C@H]1CC[C@H]2[C@@H]3[C@H](O)C[C@@H]4C[C@H](O)CC[C@]4(C)[C@H]3CC[C@]12C", "note": "[Chenodeoxycholic acid]", "values": [{"measurement": "Carbonation Effect", "setting": "[1]; [11]", "value": "200 ppb-5 ppm: Adds more violent upfront"}]}, {"smiles": "CC(C)CCC[C@@H](C)[C@H]1CC[C@H]2[C@@H]3CC=C4C[C@@H](O)CC[C@]4(C)[C@H]3CC[C@]12C", "note": "[Cholesterol]", "values": [{"measurement": "Carbonation Effect", "setting": "[1]; [11]", "value": "200 ppb-5 ppm: Very similar to Deoxycholic"}]}, {"smiles": "C[C@H](CCC(=O)O)[C@H]1CC[C@H]2[C@@H]3[C@H](O)C[C@@H]4C[C@H](O)CC[C@]4(C)[C@H]3C[C@H](O)[C@]12C", "note": "[Cholic acid]", "values": [{"measurement": "Carbonation Effect", "setting": "[1]; [10]", "value": "200 ppb: More tingly bubbles on tongue, linger,"}, {"measurement": "Carbonation Effect", "setting": "[1]; 400 ppb in lime-flavored carbonated water (Vintage seltzer water)", "value": "400 ppb: Very foamy, foam builds, lingering"}]}, {"smiles": "C[C@@H]1CC[C@@]2(OC1)O[C@H]1C[C@H]3[C@@H]4CC=C5C[C@@H](O)CC[C@]5(C)[C@H]4CC[C@]3(C)[C@H]1[C@@H]2C", "note": "[Diosgenin]", "values": [{"measurement": "Carbonation Effect", "setting": "[1]; [11]", "value": "200 ppb-5 ppm: Not much effect on carbonation,"}]}, {"smiles": "C[C@H](CCC(=O)NCC(=O)O)[C@H]1CC[C@H]2[C@@H]3[C@H](O)C[C@@H]4C[C@H](O)CC[C@]4(C)[C@H]3C[C@H](O)[C@]12C", "note": "[Glycocholic acid hydrate]", "values": [{"measurement": "Carbonation Effect", "setting": "[1]; [10]", "value": "200 ppb: Longer lasting bubbles than control,"}]}, {"smiles": "C[C@H](CCC(=O)O)[C@H]1CC[C@H]2[C@@H]3C[C@H](O)[C@@H]4C[C@H](O)CC[C@]4(C)[C@H]3CC[C@]12C", "note": "[Hyodeoxycholic acid]", "values": [{"measurement": "Carbonation Effect", "setting": "[1]; [10]", "value": "200 ppb: Very foamy, fast bubbles upfront,"}]}, {"smiles": "C[C@H](CCC(=O)NCCS(=O)(=O)[O-])[C@H]1CC[C@H]2[C@@H]3[C@@H](O)C[C@@H]4C[C@H](O)CC[C@]4(C)[C@H]3CC[C@]12C.[Na+]", "note": "[Sodium tauroursodeoxycholate]", "values": [{"measurement": "Carbonation Effect", "setting": "[1]; [10]", "value": "200 ppb: Very impactful, numbing, slightly more"}]}, {"smiles": "CC[C@H](/C=C/[C@@H](C)[C@H]1CC[C@H]2[C@@H]3CC=C4C[C@@H](O)CC[C@]4(C)[C@H]3CC[C@]12C)C(C)C", "note": "[Stigmasterol]", "values": [{"measurement": "Carbonation Effect", "setting": "[1]; [11]", "value": "200 pb-5 ppm: 5 ppm is a good level, adds more"}]}, {"smiles": "CC[C@H](CC[C@@H](C)[C@H]1CC[C@H]2[C@@H]3CC=C4C[C@@H](O[C@@H]5O[C@H](CO)[C@@H](O)[C@H](O)[C@H]5O)CC[C@]4(C)[C@H]3CC[C@]12C)C(C)C", "note": "[β-Sitosterol β-D-glucoside, Daucosterol, β-Sitosterol β-D-glucoside]", "values": [{"measurement": "Carbonation Effect", "setting": "[1]; [11]", "value": "200 ppb-5 ppm: Slight tingly tip of tongue,"}]}, {"smiles": "CC[C@H](CC[C@@H](C)[C@H]1CC[C@H]2[C@@H]3CC=C4C[C@@H](O)CC[C@]4(C)[C@H]3CC[C@]12C)C(C)C", "note": "[β-sitosterol, (3S,8S,9S,10R,13R,14S,17R)-17-((1R,4R)-4-ethyl-1,5-dimethyl-hexyl)-10,13-dimethyl-2,3,4,7,8,9,10,11,12,13,14,15,16,17-tetradecahydro-1H-cyclopenta[a]phenanthren-3-ol]", "values": [{"measurement": "Alcohol sensation", "setting": "[2]; 3 ppb in alcohol solution at 17.5% ABV", "value": "slight but noticeable increase in alcohol sensation"}, {"measurement": "Enhancement of alcohol sensation", "setting": "[2]; 200 ppb in alcohol solution at 17.5% ABV", "value": "reached a stable plateau"}, {"measurement": "Alcohol sensation", "setting": "[2]; higher concentrations (above 3 ppb, up to 500 ppb) in alcohol solution at 17.5% ABV", "value": "clear increase in alcohol intensity"}, {"measurement": "Carbonation sensation", "setting": "[3]", "value": "provided enhancement of carbonation sensation"}, {"measurement": "Alcohol sensation at the level of an alcohol solution at", "setting": "[4]; 25 ppb in alcohol solution at 8.75% ABV", "value": 10, "unit": "% ABV"}, {"measurement": "Alcohol sensation at the level of an alcohol solution at", "setting": "[4]; 25 ppb in alcohol solution at 17.5% ABV", "value": 22.5, "unit": "% ABV"}, {"measurement": "Alcohol sensation at the level of an alcohol solution at", "setting": "[4]; 25 ppb in alcohol solution at 21.75% ABV", "value": 35, "unit": "% ABV"}, {"measurement": "Carbonation perception", "setting": "[5]; 0.1 ppt in carbonated water (7.2 g/L CO2)", "value": "slight increase in carbonation perception"}, {"measurement": "Carbonation perception", "setting": "[5]; 2.5 ppt in carbonated water (7.2 g/L CO2)", "value": "clear increase in carbonation perception"}, {"measurement": "Enhancement of carbonation effect", "setting": "[5]; 5 ppt or higher in carbonated water (7.2 g/L CO2)", "value": "reached a stable plateau"}, {"measurement": "Flavor of the compound itself", "setting": "[6]", "value": "no noticeable flavor itself"}, {"measurement": "Mean Alcohol Intensity ± SE", "setting": "[7]", "value": "7.21 ± 0.27"}, {"measurement": "Mean Carbonation Intensity ± SE", "setting": "[8]", "value": "7.19 ± 1.73"}, {"measurement": "Alcohol impression, equal level as alcohol solution at", "setting": "[9]", "value": 2.5, "unit": "% ABV"}]}]}
